The values below come from paper PMC10699557, “A recombinant approach for stapled peptide discovery yields inhibitors of the RAD51 recombinase” (Chemical Science, 2023).

Entries after “also recorded” stand apart in the source; their conditions may differ. Numbered stars: 1 amine (or outer) side, 2 acyl side, 3 side chain; on linkers, the order of the positions; unused ones are H or OH. Bridge positions count the residues as written; N and C are the ends. Peptide text beside a SMILES is read from it. X1 = Nc1nc(CC[*:1])cc(CC[*:2])n1

The target of assay [1] is monomeric version of RAD51 (HumRadA22) (Pyrococcus furiosus, UniProt O74036). As to the kind of experiment: Fluorescence polarisation (FP) competition assay: displacement of fluorescein-labelled BRC4 repeat. Format: binding, archaeal RadA mutant with human Rad51 surface residues. The settings on record: read-out: FP competition KD, nM, Stapled; stapled product (linker DVT or DVP as in Table 1); 100 nM HumRadA22, 10 nM BRC4-fluorescein; 20 mM CHES pH 9.5, 150 mM NaCl, 0.1% BSA, 0.1% Tween-20; KD calculated from IC50; single titration, three technical replicates per point. The source says:
We prepared all stapled peptides from small-scale bacterial cultures as GB1/C-His8 fusions and cyclised them with the DVT linker. For peptides SP10, SP11, SP12 and SP15, correct stapling was confirmed by MS, showing a similar composition to SP2 (Fig. S15–S18 ^†). Thus, we confirm that the pseudo-dilution approach is robust in yielding almost exclusively the cyclised product, irrespective of whether a helical or non-helical motif is being constrained. To examine the effect of introducing a covalent staple on affinity, a mock reaction was done in parallel for each peptide by splitting the IMAC elution into two halves and adding DMSO to the mock control instead of the linker. TCEP (500 μM) was included in the mock reaction to maintain the peptide in linear form by preventing disulfide formation. The peptides were tested in a fluorescence polarisation (FP) assay monitoring the displacement of a fluorescently-labelled BRC4 repeat from a monomeric version of RAD51 (HumRadA22), as reported previously.[25] […]
Fluorescence polarisation competition assay
FP competition assay was a modified version of a protocol described previously. Fluorescein-labelled HsBRC4 probe for this assay was kindly provided by Dr Laurens Lindenburg (Hollfelder group, Department of Biochemistry, University of Cambridge). Black 384-well flat-bottom microplates (Corning, 3821) were used with a 40 μl final reaction volume in all measurements. Following buffer conditions were used: 20 mM CHES pH 9.5, 150 mM NaCl, 0.1% BSA, 0.1% Tween-20. Each reaction contained 100 nM HumRadA22 and 10 nM BRC4-fluorescein. Two-fold serial dilutions of stapled peptides were added to the reactions. A free probe control reaction containing only 10 nM BRC4-fluorescein was used to calibrate gain and focal height. FP measurements were performed on Pherastar FX or Clariostar Plus (BMG Labtech) plate readers equipped with an FP 485-520-520 optic modules. Binding curves were fitted using the four-parameter logistic model with a variable Hill slope using Prism software (Graphpad). Regression fitting was performed using the least squares optimisation algorithm.
KD values were estimated from the fitted IC 50 parameters using a previously reported

Another assay deals with RAD51 foci in U2OS cells. As to the kind of experiment: Immunofluorescence of IR-induced RAD51 foci formation. The settings on record: 40 μM peptide for 1 hour, then 3 Gy IR or no radiation, 3 hours recovery, five independent experiments. In kind it is cell-based, human. How it is done: We monitored the ability of SP30 and SP31 to disrupt IR-induced RAD51 foci formation using IF. Cells were pre-incubated with the peptides or with vehicle (control), after which they were either treated with no radiation or with 3 Gy IR and imaged after a 3 hours recovery. We observed RAD51 foci in the absence of peptide and IR treatment, which likely reflects recombination events associated with the basal replicative stress of U2OS cells (Fig. 5 and S4 ^†). As expected, IR treatment of control cells leads to an apparent increase in the number of RAD51 foci (Fig. 5 and S4 ^†). […] We also tested whether a linear version of SP31 (L31) also affects IR-induced and baseline foci counts in five independent experiments (Fig. S5 and S6 ^†). […] It is possible that in some of the experiments the unstapled cysteines of L31 formed a disulfide bridge in the oxidising environment of cell culture, which protected it against proteolytic degradation, similarly to chemical stapling.
(A) Representative immunofluorescence images of U2OS cells incubated with SP30 (40 μM, SP30), SP31 (40 μM, SP31) or vehicle alone (control) for 1 hour, after which they were treated with 3 Gy ionising radiation (3 Gy 3 h) or no radiation (noIR) and allowed to recover for 3 hours. Cells were stained with α-RAD51 and Hoechst 33342 as indicated. Scale bar is 10 μm. […]

A word on the Kd: it is the constant that tells how readily two partners part at equilibrium. Regarding `CC(C)C[C@@H]1NC(=O)[C@H](CCCCN)NC(=O)[C@H](CCCCN)NC(=O)CNC(=O)[C@H](CO)NC(=O)[C@H](C)NC(=O)[C@H]([C@@H](C)O)NC(=O)[C@H](CO)NC(=O)[C@H](Cc2ccccc2)NC(=O)CNC(=O)[C@H](CO)NC(=O)[C@@H](NC(=O)CN)CSCCc2cc(nc(N)n2)CCSC[C@@H](C(=O)N[C@@H](CCC(N)=O)C(=O)N[C@@H](CCCCN)C(=O)N[C@@H](C)C(=O)N[C@H](C(=O)N[C@@H](CCCCN)C(=O)N[C@@H](CC(C)C)C(=O)N[C@@H](Cc2ccccc2)C(=O)N[C@@H](CO)C(=O)NCC(=O)O)C(C)C)NC(=O)[C@H](C)NC(=O)[C@H](CCC(N)=O)NC(=O)[C@H]([C@@H](C)O)NC(=O)[C@H](CO)NC(=O)[C@H](C(C)C)NC(=O)[C@H](CC(N)=O)NC1=O` [SP30] (H-GCSGFSTASGKKLNVSTQACQKAVKLFSG-OH; linker 2-20 via X1), the Kd in assay [1] was 13 nM. The “Effect on number of RAD51 foci” value with RAD51 foci in U2OS cells is listed as “but not SP30, significantly reduces the number of RAD51 foci”.
On to `CC(C)C[C@@H]1NC(=O)[C@H](CCCCN)NC(=O)[C@H](CCCCN)NC(=O)CNC(=O)[C@H](CO)NC(=O)[C@H](C)NC(=O)[C@H]([C@@H](C)O)NC(=O)[C@H](CO)NC(=O)[C@H](Cc2ccccc2)NC(=O)CNC(=O)[C@H](CO)NC(=O)[C@@H](NC(=O)CNC(=O)CNC(=O)[C@H](CCCNC(=N)N)NC(=O)[C@H](CCCNC(=N)N)NC(=O)[C@H](CCCNC(=N)N)NC(=O)[C@H](CCCNC(=N)N)NC(=O)[C@H](CCCNC(=N)N)NC(=O)[C@H](CCCNC(=N)N)NC(=O)[C@H](CCCNC(=N)N)NC(=O)[C@H](CCCNC(=N)N)NC(=O)[C@H](CCCNC(=N)N)NC(=O)CN)CSCCc2cc(nc(N)n2)CCSC[C@@H](C(=O)N[C@@H](CCC(N)=O)C(=O)N[C@@H](CCCCN)C(=O)N[C@@H](C)C(=O)N[C@H](C(=O)N[C@@H](CCCCN)C(=O)N[C@@H](CC(C)C)C(=O)N[C@@H](Cc2ccccc2)C(=O)N[C@@H](CO)C(=O)NCC(=O)O)C(C)C)NC(=O)[C@H](C)NC(=O)[C@H](CCC(N)=O)NC(=O)[C@H]([C@@H](C)O)NC(=O)[C@H](CO)NC(=O)[C@H](C(C)C)NC(=O)[C@H](CC(N)=O)NC1=O` [SP31] (H-GRRRRRRRRRGGCSGFSTASGKKLNVSTQACQKAVKLFSG-OH; linker 13-31 via X1), for which the Kd in assay [1] was 14 nM. Also, the “Effect on number of RAD51 foci” value with RAD51 foci in U2OS cells was “significantly reduces the number of RAD51 foci in both IR-treated and untreated cells; also recorded: disrupts RAD51 foci formation”.
